The nature of series [1]: Vigorous finger rubbing under running water of UV cured coated polyurethane catheters (coating stable / lubricious). The series is classed as physicochemical. Here is the method:
The coating was applied to polyurethane catheters by dipping the catheters in the polymer solution at room temperature and withdrawing them at a speed of 21 mm/s. The catheters were dried for 30 minutes at 70° C. and then UV cured for 150 seconds at 40-50° C. The UV cured catheters were immediately rubbed vigorously between the fingers under running water in order to evaluate whether the coating was stable and lubricious. They were then stored in water for at least 72 hours, and vigorous finger rubbing under running water was repeated. The catheters were then scored “stable” and “lubricious” only if the coating was still stable and lubricious at this time.

For series [2] the following is noted: Hansen solubility parameter, cited from earlier work; for Delta D: dispersion; for Delta H: hydrogen bonding; for Delta P: polar.
The conditions of series [3]: cited from earlier work.
[4] abbreviates: 10% triethyl citrate, 79.0% solvent, 5% NMP, 6% PVP K-90, finger rubbing after at least 72 hours storage in water.
[5] abbreviates: 8.7% plasticiser, 5% PVP K-90, 82% ethanol, 4.35% NMP, polyurethane catheters, finger rubbing under running water after at least 72 hours storage in water.

≈ marks a conversion by molar mass, not a printed value. Where a name gives a salt, the structure may show the parent alone.

As to `C1COCO1` [1,3-dioxolane], the “Coating stable?” value in series [1] (setting [4]) is “stable”.
`CCOC(=O)CC(CC(=O)OCC)(OC(C)=O)C(=O)OCC` [Acetyl triethyl citrate]: in series [2], the “Delta D” value was 16.6, the “Delta H” value is on record as 8.6 and the “Delta P” value is listed as 3.5. Moreover, the “Coating stable?” value in series [1] (setting [5]) is “stable”.
`CS(C)(=O)=O` [Dimethyl sulfone]: in series [2], the “Delta D” value was 19, the “Delta H” value is 12.3 and the “Delta P” value is given as 19.4. The “Solubility in water (g/L)” value in series [3] is listed as “Miscible”.
As for `CCO` [Ethanol], in series [1] (setting [4]), the “Coating stable?” value is recorded as “stable”.
For the molecule `CC(=O)OCC(CO)OC(C)=O` (stereo not shown) [Glycerol diacetate], in series [2], the “Delta D” value was 16.4, the “Delta H” value is reported as 14.2 and the “Delta P” value is 8.9. Moreover, the “Solubility in water (g/L)” value in series [3] was “Miscible”. Besides, the “Coating stable?” value in series [1] (setting [5]) is “stable”.
In the case of `CC(=O)OCC(COC(C)=O)OC(C)=O` [Glycerol triacetate], in series [2], the “Delta D” value is on record as 16.5, the “Delta H” value is recorded as 9.1 and the “Delta P” value is 4.5. Also, the “Solubility in water” value in series [3] is 71 mg/mL. Further, in series [1] (setting [5]), the “Coating stable?” value is recorded as “stable”.
As to `CC1=CC(=O)CC(C)(C)C1` [Isophorone], in series [2], the “Delta D” value was 16.6, the “Delta H” value was 7.4 and the “Delta P” value is 8.2.
As to `COC(=O)c1ccccc1O` [Methyl salicylate], in series [2], the “Delta D” value was 16, the “Delta H” value was 12.3 and the “Delta P” value was 8.
Consider `CC(=O)N1CCOCC1` [N-Acetyl morpholine], for which, in series [2], the “Delta D” value is reported as 18.3, the “Delta H” value is on record as 7.8 and the “Delta P” value is listed as 5.3. In series [3], the “Solubility in water (g/L)” value is given as “Miscible”.
On to `CC1COC(=O)O1` (stereo not shown) [Propylene carbonate], for which, in series [2], the “Delta D” value is given as 20, the “Delta H” value is recorded as 4.1 and the “Delta P” value was 18. In addition, in series [3], the “Solubility in water” value is 190 mg/mL (≈ 1860 mM).
Regarding `c1ccc2ncccc2c1` [Quinoline], in series [2], the “Delta D” value is 19.4, the “Delta H” value is on record as 7.6 and the “Delta P” value is 7.
As for `CCOC(=O)CC(O)(CC(=O)OCC)C(=O)OCC` [Triethyl citrate], in series [1] (setting [5]), the “Coating stable?” value is “stable”.
As for `CCOP(=O)(OCC)OCC` [Triethyl phosphate], in series [2], the “Delta D” value is given as 16.7, the “Delta H” value was 9.2 and the “Delta P” value is 11.4.
Turning to `CN(C)C=O` [dimethyl formamide], the “Coating stable?” value in series [1] (setting [4]) is given as “stable”.
For `OCC(O)CO` [glycerol], the “Coating stable?” value in series [1] (setting [5]) is “not stable”.
